Measured values taken from patent publication US20250073209A1, “COVALENT TARGETING OF RhoA FOR CANCER THERAPY” (The University of Hong Kong, priority 2023, published 2025).

Assays:
[1] = target: RhoA (Homo sapiens, UniProt P61586); assay: Fluorescence-based assay of Dbs-mediated GTP binding onto RhoA; assay type: biochemical; conditions: increasing concentrations of CL16
[2] = system: HCT116 cells; assay: F-actin staining (Alexa Fluor 488-Phalloidin), serum re-stimulation; assay type: cell-based, human; conditions: HCT116, 24 h, 10% FBS re-stimulation 10 min
Procedure: To further validate the inhibitory effects of CL16 on RhoA, HCT116 and HT29 cells were transfected with a FRET-RhoA biosensor, where cells with elevated RhoA activity would show a higher FRET/mTFP1. Specifically, HCT116 cells transfected with FRET-RhoA biosensor were treated with CL16 or solvent in serum-free medium for 24 h, washed with PBS, re-stimulated with 10% FBS for 10 min, washed, and then imaged in HBSS by confocal fluorescence microscopy. […] In addition, HCT116 cells were serum-starved and treated with CL16 or Rhosin for 24 h, followed by 10% FBS re-stimulation for 10 min. The cells were then washed and fixed by 4% paraformaldehyde, washed with PBS and stained with Alexa Fluor 488-Phalloidin in PBS (1:20, v/v) at room temperature for 15 min. The cells were washed with PBS, incubated with Hoechst (8.2 μM) in PBS for 15 min, washed and then imaged in PBS by confocal fluorescence microscopy. […] Since RhoA regulates cytoskeletal dynamics and RhoA activation can induce the formation of contractile F-actin, the reduction of F-actin fibers by CL16 treatment supports its inhibitory roles on RhoA signaling.

[3] = system: normal colon fibroblast CCD-18Co cells; assay: MTT assay on normal colon fibroblasts; assay type: cell-based, human; conditions: 48 h, compared with CRCs
Procedure: HCT116 cells was seeded at 2,500 cells/well; HT29, LOVO and SW620 cells were seeded at 4,000 cells/well; CCD-18Co cells were seeded at 10,000/well; and SW480 cells were seeded at 12,000 cells/well in 96 well plate in triplicates. Cells were treated with a concentration gradient of CL16 for 48 hours. Then, cells were incubated with 10% 3-(4,5-Dimethylthiazol-2-yl)-2,5-diphenyltetrazolium bromide (MTT) solution ([…]) in 37° C. for 4 hours. Cells were then lyzed in 10% SDS in […] HCl. Absorbance of individual well was measured at 570 nm. IC50 values were analyzed by nonlinear best-fit regression using Prism Graphpad 9.
As discussed above, overexpression/hyperactivity of RhoA associated with poor prognosis and aggressive behaviors of CRCs (FIG. 8A). Thus, the anti-cancer and anti-metastatic properties of CL16 in CRCs were explored. First, it was confirmed that genetic knockdown of RhoA by siRNA slowed down colony formation and migration of CRCs by using staining (data not shown) and wound healing assay (FIG. 4A). MTT assay was used to determine cell viability of CRCs and normal colon fibroblast CCD-18Co cells treated with CL16 for 48 h (n=3 different biological replicates/group). A much lower expression level of RhoA in normal colon fibroblast CCD-18Co cells was also determined, as compared to CRCs, by western blotting (data not shown). […]

[4] = system: HT29 spheroid; assay: Spheroid formation assay, HT29; assay type: cell-based, human
Procedure: FIGS. 5A-5B are graphs showing the anticancer effects of CL16 in HT29 (FIG. 5A) and SW620 (FIG. 5B) spheroids. HT29 spheroid or SW620 spheroid were treated with CL16 at the indicated concentrations for 10 days. The spheroids were then imaged by microscope using 10× objective and the size was determined by ImageJ.
5,000 cells of HT29 and SW620 cells were inoculated in serum-free DMEM/F12 medium with 20 ng/mL […] growth factor (EGF) in 96-well round-bottom low-affinity plate (Nunc). Medium was supplemented with CL16 or Rhosin when spheroid has formed an opaque core. Morphology was recorded under a light microscope with 10× objective.
To further investigate the anticancer effects of CL16, HT29 and SW620 cells were inoculated as spheroids in low-affinity plate with 20 ng/mL EGF, and incubated with different concentrations of CL16 or Rhosin.

[5] = system: SL4 cells; assay: MTT assay on mouse CRC cells SL4; assay type: cell-based; conditions: complete medium 48 h
Procedure: FIG. 13A is a graph showing the cell viability, which was examined by MTT assay. SL4 cells were treated with solvent vehicle or CL16 in complete medium for 48 h.
Antitumor effects of CL16 in an immunocompetent, orthotopic mouse CRC model, which was established by the inoculation of mouse CRC cells, SL4, intracecally were examined (FIG. 20). […] Immunohistochemistry staining of CD3, CD4, CD8, Ki67 was conducted, with cleaved caspase-3 and VEGFR2 on tumor tissues from the vehicle- or CL16-treated mice.

[6] = target: Cdc42 (Homo sapiens, UniProt P60953); assay: Cdc42-GTP PAK-PBD pull-down in HT29 cells; assay type: cell-based; parameters: endogenous in cells; host or cells: HT29; conditions: HT29, complete medium 24 h
Sequence of Cdc42 (P60953 whole entry): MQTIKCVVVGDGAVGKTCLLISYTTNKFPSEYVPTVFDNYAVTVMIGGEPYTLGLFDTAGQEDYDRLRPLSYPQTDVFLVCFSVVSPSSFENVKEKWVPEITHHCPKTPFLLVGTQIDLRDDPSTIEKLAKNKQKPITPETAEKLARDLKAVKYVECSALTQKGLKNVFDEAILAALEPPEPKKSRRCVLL
Text: The procedure is similar to that for RhoA-GTP assay, except that Rac1-GTP and Cdc42-GTP in CRC cells were first enriched by Rac1 Pull-Down Activation Assay Biochem Kit (Cytoskeleton #BK035) instead of using the RhoA kit. The enriched Rac1-GTP and Cdc42-GTP were then immunoblotted by Rac1/2/3 antibody (CST #2465) and Cdc42 antibody (CST #2462) respectively.
GTP loading onto RhoA is critical for the protein activation and mediating downstream signals. In view of the inhibitions of GDP-to-GTP exchange of RhoA by CL16 in vitro as discussed above, effects of CL16 on RhoA biology in colorectal cancer cells were examined. In the serum starvation-re-stimulation experiment, HCT116 cells were grown in serum-free medium with CL16, Rhosin or solvent control for 24 h, followed by stimulation with 10% FBS for 10 min. The cells were then lysed and the RhoA activity was assayed by the level of RhoA-GTP, which is the active form of RhoA. […] HT29 cells were incubated with solvent vehicle, CL16 or Rhosin in complete medium for 24 h. The cells were then washed, lysed and subjected to rhotekin pull-down for blotting RhoA-GTP, or PAK-PBD pull-down for blotting Rac1-GTP and Cdc42-GTP. Confocal fluorescence images from HCT116 and HT29 cells expressing FRET RhoA-biosensor in the serum starvation-restimulation experiment were taken.

Sequence of RhoA (P61586 whole entry): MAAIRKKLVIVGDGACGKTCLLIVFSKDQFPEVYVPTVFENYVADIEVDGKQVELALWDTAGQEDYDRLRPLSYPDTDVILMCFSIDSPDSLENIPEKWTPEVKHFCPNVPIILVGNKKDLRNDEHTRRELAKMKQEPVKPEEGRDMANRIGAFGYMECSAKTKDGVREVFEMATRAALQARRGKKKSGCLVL

kinetics of Dbs-mediated GTP binding onto RhoA [1]: significant decrease in the kinetics | Cdc42 activity (Cdc42-GTP) [6]: no significant changes
Structure (SMILES): O=C(CCl)N1N=C(c2cc3ccccc3o2)CC1c1ccco1 (stereo not shown) [CL16]
concentration from which reduction of F-actin fibers was observed [2]: ≥ 5 µM | toxicity in normal cells (cell viability) [3]: much less toxic | growth of HT29 spheroids ([4]; 20 ng/mL EGF, low-affinity plate): significant inhibitions in the growth | IC50 ([4]; Homo sapiens, HT-29, 240 h, 10 days, read-out: cytotoxic IC50 in HT29 spheroids): 5.57 µM | viability of SL4 [5]: significantly decreased the viability
